Experimental data reported in US9145415B2, “Nitrogen-containing heterocyclic compound or salt thereof” (FUJIFILM Corporation, priority 2012, dated 2015).
pIC50: −log10 of the molar value. Read-outs that look alike come from different tables or passages of the source.

Experiments:
MV4-11 cells = assay: Leukemia cell proliferation inhibition test (ATPlite), MV4-11; type: cell-based; conditions: Homo sapiens, read-out: MV4-11 cell proliferation inhibition effect
Protocol: (§1) A leukemia cell proliferation inhibition test was performed for the compounds of the present invention by using the leukemia cell strains MV4-11 (ATCC Number, CRL-9591) and Molm-13 (DSMZ Number, ACC554).
(§2) The leukemia cell proliferation inhibition test was performed by the method described below.
(§3) For the purpose of measuring proliferation inhibition attained with a compound, the total cell count was quantified on the basis of the total cellular ATP concentration using the ATPlite (PerkinElmer) reagent utilizing firefly luciferase. The Molm-13 or MV4-11 cells were added to the RPMI medium containing penicillin and streptomycin (penn/strep) and 10% FBS at a density of 2×10^5 cells/ml, and 50 μL (10,000 cells) of the cell suspension was inoculated to each well of a 96-well plate (Corning).
(§4) A serially diluted solution of a compound or 0.1% DMSO (solvent control) in a volume of 50 μL was added to the cells, and then the cells were cultured for 72 hours under the standard cell proliferation conditions (37° C., 5% CO2) to allow proliferation of the cells. In order to measure the proliferation of the total cells, equal volume of the ATPlite reaction mixture was added to each well in accordance with the instructions attached to ATPlite, and then luminescence count of the well was measured (relative light unit, RLU).
(§5) The RLU signal observed with the DMSO solvent control after 72 hours of the culture was defined as a signal indicating 0% inhibition, and the GI50 value for the proliferation inhibition corresponds to a concentration of a compound that provides 50% inhibition based on the proliferation of the total cells contained in the DMSO solvent control. Each data point was obtained from samples in duplicate. The GI50 values were calculated by the non-linear regression fitting (Fit Model (205)) according to a sigmoid dose-reaction equation using the XLfit software.

Molm-13 cells = assay: Leukemia cell proliferation inhibition test (ATPlite), Molm-13; type: cell-based; conditions: Homo sapiens, read-out: MOLM13 cell proliferation inhibition effect
Protocol: as §1, §2, §3, §4, §5

[1] = molecular target: T1, human FLT3 protein (FLT3 (WT)) (Homo sapiens, UniProt P36888); assay: FLT3 inhibition test (FLT3 enzyme inhibition, time-resolved fluorescence of substrate peptide phosphorylation); type: biochemical; conditions: read-out: FLT3 (WT) enzyme inhibition activity
T1 construct: human FLT3 protein (intracellular region, 564 to 993 aa); GST; purchased Carna Biosciences; host or cells: baculovirus expression system
T1 sequence (P36888 564-993): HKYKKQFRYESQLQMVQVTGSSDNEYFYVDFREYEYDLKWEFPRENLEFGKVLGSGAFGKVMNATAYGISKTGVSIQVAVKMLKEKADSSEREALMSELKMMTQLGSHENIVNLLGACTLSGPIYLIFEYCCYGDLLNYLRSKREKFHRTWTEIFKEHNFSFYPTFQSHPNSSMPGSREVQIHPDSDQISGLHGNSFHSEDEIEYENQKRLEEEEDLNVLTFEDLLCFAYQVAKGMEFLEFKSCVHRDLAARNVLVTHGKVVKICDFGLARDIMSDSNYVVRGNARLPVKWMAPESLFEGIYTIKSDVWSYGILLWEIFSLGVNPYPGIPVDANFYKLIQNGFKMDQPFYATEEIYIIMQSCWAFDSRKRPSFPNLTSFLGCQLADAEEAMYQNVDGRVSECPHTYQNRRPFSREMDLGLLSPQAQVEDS
Protocol: The FLT3 inhibition test was performed for the compounds of the present invention by the method described below.
A reaction mixture in a volume of 9 μL containing the FLT3 protein and a test compound of a predetermined concentration (1.2 μg of FLT3, 100 mM HEPES, 10 mM MgCl2, 25 mM NaCl, 0.01% BSA, 1 mM DTT, pH 7.5) was left standing at 25° C. for 15 minutes. […] (Toray Industries), and 3 μL (final concentration 50 μM) of ATP (Sigma-Aldrich) were added to the reaction mixture, and the mixture was shaken for 2 minutes, and then further left standing at 25° C. for 30 minutes to allow the enzymatic reaction.

[2] = MV4-11, 72 h, MV4-11, 72 hours culture, ATPlite, GI50 per method
[3] = MOLM-13, 72 h, Molm-13, 72 hours culture, ATPlite, GI50 per method
[4] = GST-fused human FLT3 (564 to 993 aa), ATP 50 μM

Row | Compound | pIC50 (MV4-11 cells; [2]) | pIC50 (Molm-13 cells; [3]) | pIC50 [1, 4] | pIC50 (MV4-11 cells; MV4-11, MV4-11 cell) | pIC50 (Molm-13 cells; MOLM-13, MOLM13 cell) | pIC50 ([1]; FLT3 (WT))
1 | C=CC(=O)NCC(=O)Nc1cc(NC(=O)c2cnc(NCCc3ccncc3)nc2NCCC)c(C)cc1C [Compound 2-6] | 7.00 to 8.00 | 7.00 to 8.00 | 7.00 to 8.00 | – | – | –
2 | CCCNc1nc(Nc2ccc(C(N)=O)cc2)ncc1C(=O)Nc1cccc(NC2CCN(C(=O)/C=C/CN(C)C)C2)c1 (stereo not drawn) [Compound 3-20] | 7.00 to 8.00 | 6.00 to 7.00 | > 8.00 | – | – | –
3 | CCCNc1nc(NCCc2ccncc2)ncc1C(=O)Nc1cccc(NC(=O)CCNC(=O)/C=C/CN(C)C)c1 [Compound 2-10] | 6.00 to 7.00 | 6.00 to 7.00 | > 8.00 | – | – | –
4 | CCCN(C)c1nc(NCCc2ccncc2)ncc1C#Cc1cccc(NC(=O)[C@H](C)N(C)C(=O)/C=C/CN(C)C)c1 [Compound 12-14, (S,E)-4-(dimethylamino)-N-methyl-N-(1-((3-((4-(methyl(propyl)amino)-2-((2-(pyridin-4-yl)ethyl)amino)pyrimidin-5-yl)ethynyl)phenyl)amino)-1-oxopropan-2-yl)-2-butenamide] | > 8.00 | > 8.00 | > 8.00 | – | – | –
5 | CCCNc1nc(Nc2ccc3c(c2)c(F)nn3C)ncc1C#CCCCNC(=O)[C@@H]1CCCN1C(=O)/C=C/CN(C)C [Compound 22-61] | – | – | – | > 8.00 | > 8.00 | > 8.00
6 | CCCNc1nc(Nc2cnc3c(c2)c(OC)nn3C)ncc1C#CCCCNC(=O)[C@H](C)N(C)C(=O)/C=C/CN(C)C [Compound 22-29] | – | – | – | > 8.00 | > 8.00 | > 8.00
7 | CC[C@@H](C(=O)NCCCC#Cc1cnc(Nc2ccc(F)cc2)nc1Nc1ccc(OC)nc1)N(C)C(=O)/C=C/CN(C)C [Compound 10-39] | > 8.00 | > 8.00 | > 8.00 | – | – | –
8 | Cc1ccc(Nc2nc(Nc3cccc(F)c3)ncc2C#CCCCNC(=O)[C@H](C)N(C)C(=O)/C=C/CN(C)C)cc1 [Compound 10-11] | > 8.00 | 7.00 to 8.00 | > 8.00 | – | – | –
9 | C[C@@H](C(=O)N[C@H]1CCC[C@@H](C#Cc2cnc(Nc3ccc(C#N)cc3)nc2N2CCOCC2)C1)N(C)C(=O)/C=C/CN(C)C [Compound 14-5] | > 8.00 | > 8.00 | > 8.00 | – | – | –
10 | COCCCNc1nc(Nc2ccnc(OC)c2)ncc1C#CCCCNC(=O)[C@@H]1CCCN1C(=O)/C=C/CN(C)C [Compound 9-32, (S,E)-1-(4-(Dimethylamino)-2-butenoyl)-N-(5-(4-((3-methoxypropyl)amino)-2-((methoxypyridin-4-yl)amino)pyrimidin-5-yl)-4-pentyn-1-yl)pyrrolidine-2-carboxamide] | > 8.00 | > 8.00 | > 8.00 | – | – | –
11 | CCCNc1nc(Nc2ccc(C(N)=O)cc2)ncc1C(=O)Nc1cccc(NC(=O)[C@H](C)N(C)C(=O)/C=C/CN(CC)CC)c1 [Compound 4-8, (S,E)-2-((4-Carbamoylphenyl)amino)-N-(3-(2-(4-(diethylamino)-N-methyl-2-butenamido)propanamido)phenyl)-4-(propylamino)pyrimidine-5-carboxamide] | > 8.00 | > 8.00 | > 8.00 | – | – | –
12 | COc1ccc(Nc2ncc(C#C[C@H]3C[C@@H](NC(=O)[C@H](C)N(C)C(=O)/C=C/CN(C)C)C3)c(NC3CC3)n2)cc1F (relative stereo) [Compound 15-10, (E)-N—((S)-1-(((1S*,3R*)-3-((4-(Cyclopropylamino)-2-((3-fluoro-4-methoxyphenyl)amino)pyrimidin-5-yl)ethynyl)cyclobutyl)amino)-1-oxopropan-2-yl)-4-(dimethylamino)-N-methyl-2-butenamide] | > 8.00 | > 8.00 | > 8.00 | – | – | –
13 | CCCNc1nc(Nc2ccc(C(N)=O)cc2)ncc1C(=O)NC1CCCC(NC(=O)CN(C)C(=O)/C=C/CN(C)C)C1 (stereo not drawn) [Compound 3-4, (E)-2-((4-Carbamoylphenyl)amino)-N-(3-(2-(4-(dimethylamino)-N-methyl-2-butenamido)actamido)cyclohexyl)-4-(propylamino)pyrimidine-5-carboxamide] | > 8.00 | > 8.00 | > 8.00 | – | – | –
14 | COCCCNc1nc(Nc2ccnc(OC)c2)ncc1C#CCCCNC(=O)[C@@H]1C[C@H](F)CN1C(=O)/C=C/CN(C)C [Compound 9-34, (2S,4S)-1-((E)-4-(Dimethylamino)-2-butenoyl)-4-fluoro-N-(5-(4-((3-methoxypropyl)amino)-2-((methoxypyridin-4-yl)amino)pyrimidin-5-yl)-4-pentyn-1-yl)pyrrolidine-2-carboxamide] | > 8.00 | > 8.00 | > 8.00 | – | – | –
15 | COCCNc1nc(Nc2cccc(F)c2)ncc1C#C[C@@H]1CCC[C@H](NC(=O)[C@H](C)N(C)C(=O)/C=C/CN(C)C)C1 [Compound 22-36] | – | – | – | > 8.00 | > 8.00 | > 8.00

Second part, the compound after the results:

Row | pIC50 (MV4-11 cells; [2]) | pIC50 (Molm-13 cells; [3]) | pIC50 [1, 4] | pIC50 (MV4-11 cells; MV4-11, MV4-11 cell) | pIC50 (Molm-13 cells; MOLM-13, MOLM13 cell) | pIC50 ([1]; FLT3 (WT)) | Compound
16 | > 8.00 | > 8.00 | > 8.00 | – | – | – | CCCNc1nc(Nc2ccc3nnccc3c2)ncc1C(=O)Nc1cccc(NC(=O)[C@H](C)N(C)C(=O)/C=C/CN(C)C)c1 [Compound 6-11, (S,E)-2-(Cinnolin-6-ylamino)-N-(3-(2-(4-(dimethylamino)-N-methyl-2-butenamido)propanamido)phenyl)-4-(propylamino)pyrimidine-5-carboxamide]
17 | 7.00 to 8.00 | > 8.00 | > 8.00 | – | – | – | C=CC(=O)N(C)CC(=O)NC(CC)CCNC(=O)c1cnc(NCCc2ccncc2)nc1NCCC (stereo not drawn) [Compound 1-7]
18 | > 8.00 | > 8.00 | > 8.00 | – | – | – | COc1ccc(Nc2nc(Nc3cccc(F)c3)ncc2C#CCCCNC(=O)[C@H](C)N(C)C(=O)/C=C/CN(C)C)cn1 [Compound 7-19]
19 | – | – | – | > 8.00 | > 8.00 | > 8.00 | CCCNc1nc(Nc2ccc3cnn(CCOC)c3c2)ncc1C#CCCCNC(=O)[C@H](C)N(C)C(=O)/C=C/CN(C)C [Compound 22-11]
20 | > 8.00 | > 8.00 | > 8.00 | – | – | – | CN(C)C/C=C/C(=O)N1CCC[C@H]1C(=O)N[C@H]1C[C@@H](C#Cc2cnc(Nc3ccc(C#N)cc3)nc2NC2CC2)C1 [Compound 15-12]
21 | 7.00 to 8.00 | 7.00 to 8.00 | > 8.00 | – | – | – | CCCNc1nc(Nc2cccc(F)c2)ncc1-c1cc(CCNC(=O)[C@H](C)N(C)C(=O)/C=C/CN(C)C)on1 [Compound 17-3, (S,E)-4-(dimethylamino)-N-(1-((2-(3-(2-((3-fluorophenyl)amino)-4-(propylamino)pyrimidin-5-yl)isoxazol-5-yl)ethyl)amino)-1-oxopropan-2-yl)-N-methyl-2-butenamide]
22 | > 8.00 | > 8.00 | > 8.00 | – | – | – | CCCNc1nc(Nc2ccc(C(N)=O)cc2)ncc1C(=O)Nc1cccc(NC(=O)[C@H](C)N(C)C(=O)/C=C/CN(C)C)c1 [Compound 3-1, (S,E)-2-((4-carbamoylphenyl)amino)-N-(3-(2-(4-(dimethylamino)-N-methyl-2-butenamido)propanamido)phenyl)-4-(propylamino)pyrimidine-5-carboxamide]
23 | > 8.00 | > 8.00 | > 8.00 | – | – | – | CNc1nc(Nc2ccc(F)cc2)ncc1C#CCCCNC(=O)[C@@H]1C[C@@H](F)CN1C(=O)/C=C/CN(C)C [Compound 7-81, (2S,4R)-1-((E)-4-(Dimethylamino)-2-butenoyl)-4-fluoro-N-(5-(2-((4-fluorophenyl)amino)-4-(methylamino)pyrimidin-5-yl)-4-pentyn-1-yl)pyrrolidine-2-carboxamide]
